From patent US20240034753A1, “THERAPEUTIC PEPTIDES” (COHBAR, INC., priority 2020, published 2024)
Square brackets hold non-standard residues; d marks the D form. Peptide text beside a SMILES is read from it. Nle = CCCC[C@H](N)C(=O)O

Columns and labels:
[1] = system: A172 human brain glioblastoma cell line; assay: Caspase-Glo 3/7 assay of caspase 3/7 activity in cultured cells; format: cell-based; settings: peptide 10 μM, 18-20 hours, relative to 0.1% DMSO control
Method: The effect of the peptides on cell death/survival can be assessed using a […] assay in cultured cells. Peptides were dissolved at 10 mM in DMSO as stock solutions for use at a final concentration of 10 μM. […] Caspase-Glo 3/7 Assay Reagent was purchased from Promega (Madison, WI). A172 human brain glioblastoma cell line was purchased from American Type Culture Collection (Manassas, VA). A172 cells were grown in DMEM supplemented with 10% FBS with 100 IU/ml penicillin and 100 μg/ml streptomycin. Cultures were maintained at 37° C. in a humidified atmosphere of 5% CO2/95% air. A172 cells were seeded at 8,000 cells per well on 96-well plates. […] Caspase 3/7 activity was determined using a Caspase-Glo 3/7 Assay kit (Promega) according to the manufacturer's instructions. Luminescence for each sample well on the plate was measured using a Cytation 3 plate reader (BioTek, Winooski, VT). Activity was calculated relative to 0.1% DMSO control.

[2] = system: A172 Cells; assay: PrestoBlue cell viability assay; format: cell-based; settings: human, 10 μM
Method: The effect of the peptides on cell viability can be assessed in cultured cells using suitable assay of viability such as the PrestoBlue® assay (Thermo Fisher Scientific, Waltham, MA). Peptides were initially prepared as 10 mM stock in DMSO and tested at a final concentration of 10 μM (0.1% DMSO). […] PrestoBlue Assay Reagent was purchased from Thermo Fisher Scientific. A172 human brain glioblastoma cell line was purchased from American Type Culture Collection (Manassas, VA). A172 cells were grown in DMEM supplemented with 10% FBS with 100 IU/ml penicillin and 100 μg/ml streptomycin. Cultures were maintained at 37° C. in a humidified atmosphere of 5% CO2/95% air. A172 cells were seeded at 8,000 cells per well on 96-well plates. […] Cell viability was determined using a PrestoBlue Assay reagent […] according to the manufacturer's instructions. Absorption for each sample well on the plate was measured using a Cytation 3 plate reader at 560 nm and 590 nm (BioTek, Winooski, VT). Activity was calculated relative to 0.1% DMSO untreated control. Treatment with 0.1% DMSO alone was used as the cell viability activity control. The relative standard deviation of the DMSO control was <5%.

[3] = system: SH-SY5Y Neuroblastoma Cells; assay: ATP levels (CellTiter-Glo); format: cell-based, human; settings: peptide 10 μM, 18-20 hours, relative to 0.1% DMSO treated control
Method: The effect of the peptides on cellular metabolism can be assessed using an assay of ATP levels in cultured cells such as human neuroblastoma cells. Peptides were initially prepared as 10 mM stock in DMSO and used at a final concentration of 10 μM (0.1% DMSO). […] CellTiter-Glo® Assay kit was purchased from Promega. SH-SY5Y human bone marrow neuroblastoma cell line was purchased from American Type Culture Collection (Manassas, VA) and licensed from Memorial Sloan-Kettering Cancer Center (New York, NY). SH-SY5Y cells were grown in DMEM/F12 medium supplemented with 10% FBS with 100 IU/ml penicillin and 100 μg/ml streptomycin. Cultures were maintained at 37° C. in a humidified atmosphere of 5% CO2/95% air. SH-SY5Y cells were seeded at 30,000 cells per well on 96-well plates. […] ATP levels were determined using a CellTiter-Glo Assay kit (Promega) according to the manufacturer's instructions. Luminescence for each sample well on the plate was measured using a Cytation 3 plate reader (BioTek, Winooski, VT). Activity was calculated relative to 0.1% DMSO treated control. The relative standard deviation of the result for the 0.1% DMSO treated control was <5%.

[4] = system: SH-SY5Y Neuroblastoma Cells Exposed to Staurosporine; assay: ATP levels in cells exposed to staurosporine (CellTiter-Glo); format: cell-based, human; settings: peptide 10 μM plus staurosporine (40 μM), 18-20 hours; <100% cytoprotective, >100% synergistic
Method: Peptides were initially prepared as 10 mM stock in DMSO and tested at a final concentration of 10 μM (0.1% DMSO). […] […] CellTiter-Glo® Assay kit was purchased from Promega. SH-SY5Y human neuroblastoma cell line was purchased from American Type Culture Collection (Manassas, VA) and licensed from Memorial Sloan-Kettering Cancer Center (New York, NY). SH-SY5Y cells were grown in DMEM/F12 medium supplemented with 10% FBS with 100 IU/ml penicillin and 100 μg/ml streptomycin. Cultures were maintained at 37° C. in a humidified atmosphere of 5% CO2/95% air. SH-SY5Y cells were seeded at 30,000 cells per well on 96-well plates. […] ATP levels were determined using a CellTiter-Glo Assay kit (Promega) according to the manufacturer's instructions. Luminescence for each sample well on the plate was measured using a Cytation 3 plate reader (BioTek, Winooski, VT). […] A value less than 100% is indicative of a cytoprotective effect, while a value greater than 100% is indicative of a synergistic effect on viability.

SMILES: CC[C@H](C)[C@H](NC(=O)[C@H](CC(C)C)NC(=O)[C@H](CC(C)C)NC(=O)[C@@H](N)CCSC)C(=O)N[C@@H](CC(C)C)C(=O)N[C@H](C(=O)N[C@@H](CC(C)C)C(=O)N[C@H](C(=O)N[C@@H](CC(C)C)C(=O)N[C@H](C)C(=O)O)C(C)C)[C@@H](C)O [compound 3] (H-MLLILTLVL[dA]-OH; N-terminus and C-terminus assumed)
- Caspase 3/7 Activity, Percent of Control Activity [1]: 90.9%
- PrestoBlue cell viability, Percent of Control Activity [2]: 96.5%
- ATP Levels, % Control [3]: 104.8%
- Percent of ATP Reduction Induced by Control [4]: 102.7%

SMILES: CC[C@H](C)[C@H](NC(=O)[C@H](CC(C)C)NC(=O)[C@H](C)NC(=O)[C@@H](N)CCSC)C(=O)N[C@@H](CC(C)C)C(=O)N[C@H](C(=O)N[C@@H](CC(C)C)C(=O)N[C@H](C(=O)N[C@@H](CC(C)C)C(=O)N[C@H](C)C(=O)O)C(C)C)[C@@H](C)O [compound 4] (H-MALILTLVL[dA]-OH; N-terminus and C-terminus assumed)
- Caspase 3/7 Activity, Percent of Control Activity [1]: 96.4%
- PrestoBlue cell viability, Percent of Control Activity [2]: 99.7%
- ATP Levels, % Control [3]: 102.2%
- Percent of ATP Reduction Induced by Control [4]: 94.0%

SMILES: CC[C@H](C)[C@H](NC(=O)[C@H](CC(C)C)NC(=O)[C@H](C)NC(=O)[C@@H](N)CCSC)C(=O)N[C@@H](CC(=O)O)C(=O)N[C@H](C(=O)N[C@@H](CC(C)C)C(=O)N[C@H](C(=O)N[C@@H](CC(C)C)C(=O)N[C@H](C)C(=O)O)C(C)C)[C@@H](C)O [compound 5] (H-MALIDTLVL[dA]-OH; N-terminus and C-terminus assumed)
- Caspase 3/7 Activity, Percent of Control Activity [1]: 76.2%
- PrestoBlue cell viability, Percent of Control Activity [2]: 97.0%
- ATP Levels, % Control [3]: 97.1%
- Percent of ATP Reduction Induced by Control [4]: 106.1%

SMILES: CC[C@H](C)[C@H](NC(=O)[C@@H](NC(=O)CNC(=O)[C@@H](C)NC(=O)[C@@H](N)CCSC)C(C)C)C(=O)N[C@@H](CCCNC(=N)N)C(=O)NCC(=O)N[C@H](C(=O)N[C@@H](CC(C)C)C(=O)N[C@H](C(=O)N[C@@H](CC(C)C)C(=O)O)C(C)C)C(C)C [compound 9] (H-M[dA]GVIRGVLVL-OH; N-terminus and C-terminus assumed)
- Caspase 3/7 Activity, Percent of Control Activity [1]: 89.3%
- PrestoBlue cell viability, Percent of Control Activity [2]: 94.8%
- ATP Levels, % Control [3]: 105.9%
- Percent of ATP Reduction Induced by Control [4]: 95.1%

SMILES: CC[C@H](C)[C@H](NC(=O)[C@@H](NC(=O)CNC(=O)[C@@H](C)NC(=O)[C@@H](N)CCSC)C(C)C)C(=O)N[C@@H](CCCNC(=N)N)C(=O)N[C@@H](C)C(=O)N[C@H](C(=O)N[C@@H](CC(C)C)C(=O)N[C@H](C(=O)N[C@@H](CC(C)C)C(=O)O)C(C)C)C(C)C [compound 10] (H-M[dA]GVIRAVLVL-OH; N-terminus and C-terminus assumed)
- Caspase 3/7 Activity, Percent of Control Activity [1]: 82.6%
- PrestoBlue cell viability, Percent of Control Activity [2]: 99.6%
- ATP Levels, % Control [3]: 103.2%
- Percent of ATP Reduction Induced by Control [4]: 90.4%

SMILES: CC[C@H](C)[C@H](NC(=O)[C@H](Cc1c[nH]c2ccccc12)NC(=O)[C@H](CCC(N)=O)NC(=O)[C@@H](N)CCCNC(=N)N)C(=O)N[C@@H](CC(C)C)C(=O)N[C@@H](Cc1c[nH]cn1)C(=O)N[C@@H](CC(N)=O)C(=O)N[C@H](C)C(=O)NCC(=O)N[C@@H](CCSC)C(=O)N[C@@H](CO)C(=O)N[C@@H](Cc1ccccc1)C(=O)N[C@@H](Cc1ccccc1)C(=O)N[C@@H](CS)C(=O)O [compound 14] (H-RQWILHN[dA]GMSFFC-OH; N-terminus and C-terminus assumed)
- Caspase 3/7 Activity, Percent of Control Activity [1]: 107.4%
- PrestoBlue cell viability, Percent of Control Activity [2]: 97.5%
- ATP Levels, % Control [3]: 98.4%
- Percent of ATP Reduction Induced by Control [4]: 93.6%

SMILES: CSCC[C@H](NC(=O)CNC(=O)[C@@H](C)NC(=O)[C@H](CC(N)=O)NC(=O)[C@H](Cc1c[nH]cn1)NC(=O)[C@H](CC(C)C)NC(=O)[C@H](CCC(=O)O)NC(=O)[C@H](Cc1c[nH]c2ccccc12)NC(=O)[C@H](CCC(N)=O)NC(=O)[C@@H](N)CCCNC(=N)N)C(=O)N[C@@H](CO)C(=O)N[C@@H](C)C(=O)N[C@@H](Cc1ccccc1)C(=O)N[C@@H](CS)C(=O)O [compound 15] (H-RQWELHN[dA]GMSAFC-OH; N-terminus and C-terminus assumed)
- Caspase 3/7 Activity, Percent of Control Activity [1]: 114.6%
- PrestoBlue cell viability, Percent of Control Activity [2]: 98.8%
- ATP Levels, % Control [3]: 101.8%
- Percent of ATP Reduction Induced by Control [4]: 88.4%

SMILES: CSCC[C@H](NC(=O)[C@H](CCCNC(=N)N)NC(=O)[C@H](CCCNC(=N)N)NC(=O)[C@@H](N)CCCNC(=N)N)C(=O)N[C@@H](Cc1ccccc1)C(=O)N[C@@H](CO)C(=O)N[C@@H](CS)C(=O)N[C@@H](Cc1ccc(O)cc1)C(=O)N[C@H](C)C(=O)N[C@@H](Cc1ccc(O)cc1)C(=O)O [compound 19] (H-RRRMFSCY[dA]Y-OH; N-terminus and C-terminus assumed)
- Caspase 3/7 Activity, Percent of Control Activity [1]: 93.7%
- PrestoBlue cell viability, Percent of Control Activity [2]: 98.8%
- ATP Levels, % Control [3]: 106.7%
- Percent of ATP Reduction Induced by Control [4]: 99.5%

SMILES: CCCC[C@H](NC(=O)[C@H](CCCNC(=N)N)NC(=O)[C@H](CCCNC(=N)N)NC(=O)[C@@H](N)CCCNC(=N)N)C(=O)N[C@@H](Cc1ccccc1)C(=O)N[C@@H](CO)C(=O)N[C@@H](CS)C(=O)N[C@@H](Cc1ccc(O)cc1)C(=O)N[C@H](C)C(=O)N[C@@H](Cc1ccc(O)cc1)C(=O)O [compound 20] (H-RRR[Nle]FSCY[dA]Y-OH; N-terminus and C-terminus assumed)
- Caspase 3/7 Activity, Percent of Control Activity [1]: 85.4%
- PrestoBlue cell viability, Percent of Control Activity [2]: 104.7%
- ATP Levels, % Control [3]: 106.9%
- Percent of ATP Reduction Induced by Control [4]: 101.4%

SMILES: CC[C@H](C)[C@H](NC(=O)[C@@H](NC(=O)[C@H](Cc1c[nH]cn1)NC(=O)[C@H](CCCNC(=N)N)NC(=O)[C@H](CC(=O)O)NC(=O)[C@H](Cc1ccc(O)cc1)NC(=O)[C@H](CC(C)C)NC(=O)[C@H](CC(C)C)NC(=O)[C@@H](NC(=O)[C@@H](N)Cc1c[nH]c2ccccc12)C(C)C)C(C)C)C(=O)NCC(=O)NCC(=O)N[C@@H](CO)C(=O)N[C@@H](CC(C)C)C(=O)N[C@@H](CS)C(=O)N[C@H](C(=O)N[C@H](C(=O)N[C@H](C(=O)N[C@@H](CCC(N)=O)C(=O)N[C@H](C(=O)N[C@@H](CCC(=O)O)C(=O)N[C@H](C)C(=O)N[C@@H](Cc1ccc(O)cc1)C(=O)O)C(C)C)C(C)C)C(C)C)C(C)C [compound 23] (H-WVLLYDRHVIGGSLCVVVQVE[dA]Y-OH; N-terminus and C-terminus assumed)
- Caspase 3/7 Activity, Percent of Control Activity [1]: 104.3%
- PrestoBlue cell viability, Percent of Control Activity [2]: 97.1%
- ATP Levels, % Control [3]: 105.9%
- Percent of ATP Reduction Induced by Control [4]: 69.6%
